“Also recorded” adds a separate entry of the source. Where two headings read alike, the source gives them in different places.
How the values were obtained:
wt-psBBOX [1] = target: T1, wt-psBBOX (Pseudomonas sp., UniProt P80193); conditions: Km for 2OG; cited from earlier work
[2] = target: T2, psBBOX-Y201C-BFA (psBBOX*) (Pseudomonas sp., UniProt P80193, Y201C); test: 1H NMR inhibition assay of psBBOX-Y201C-BFA (psBBOX*) catalysed GBB turnover; format: biochemical, Pseudomonas sp. AK1
T2 construct: hexa-His tag (pCOLDI) (N); made in house; host or cells: E. coli BL21 (DE3)
Procedure: (§1) in 20 mM HCl in D2O), 200 μM GBB (Cl- salt), 600 μM 2OG, in Tris-d11 (pH 7.5 in H 2O).
(§2) 2OG, in phosphate buffer (50 mM, pH 7.1, pD 7.5, in D2O). […]
([(NH4)2Fe(SO4)2.6H2O] in 20mM HCl in D2O), 600 μM 2OG, 500 μM L-ascorbate (di-sodium salt), in Tris-d11 ( p H 7 . 5 i n H 2O ) . […]

wt-psBBOX [3] = target: T1, wt-psBBOX; conditions: 2 μM psBBOX, 50 μM metal, 50 mM HEPES pH 7.5; for Tm Shift: relative to protein without metal
Procedure: psBBOX Differential Scanning Fluorimetry (DSF) assays
See also Supplementary Figure S5. […]
concentration 50 μM). Controls contained 10 μL of buffer instead of metal solution. 2 mL of master mix was prepared by mixing 1.25 mL stock of sypro orange (made by diluting 1 μL of […]
and 739 μl of 50 mM HEPES pH 7.5. […]
μL. Metal solutions were made freshly. Experiments was carried out in triplicate.
DSF was performed using a MiniOpticon Real-Time PCR Detection System (Bio-Rad), monitoring protein unfolding using SYPRO orange (Invitrogen) according to reported […]
nm) filters were used for excitation and the emission, respectively. Reaction mixtures contained: 2 μM protein, 50 μM metal and 1 × SYPRO orange (final volume 50 μL). Reagents were prepared in 50 mM HEPES buffer pH 7.5. Iron solution was prepared shortly before […]
temperature increased linearly by 1 °C per minute.
The inflection point, representing Tm, was calculated by fitting the Boltzmann equation to the sigmoidal curves obtained; data were processed using GraphPad Prism 5.0. The Tm shift caused by the addition of small molecules/fragments was determined by subtraction of the “reference” Tm (protein without metal) from the Tm obtained in the presence of the metal.

psBBOX [4] = target: T3, psBBOX (Pseudomonas sp., UniProt P80193); format: binding, Pseudomonas sp. AK1; conditions: 1H NMR reporter assay; for GBB displacement: titration into psBBOX-Zn(II)-2OG-GBB complex; for displacement of GBB and 2OG from the psBBOX active site: wild-type psBBOX
T3 construct: N-terminal hexa-His tag (pCOLD I vector); printed for the Y201C variant, inferred for wild type from the pCOLD template (N); made in house; host or cells: Escherichia coli
Text: NMR based reporter BBOX assays, using either Zn^(II) or Mn^(II) (making use of paramagnetic relaxation enhancement (PRE)) to observe ligand binding are reported.[25] These enable monitoring of co/substrate 2OG/γ-butyrobetaine (GBB; 3) psBBOX binding and inform on binding modes of inhibitors, including whether they displace GBB and/or 2OG. We now report ^19F NMR studies on ligand binding to BBOX; the work was initiated following ^1H NMR observations concerning the binding of Mildronate to psBBOX.
Since psBBOX is dimeric[21],[22] (Fig. 1C), these observations led to the proposal that binding of a second molecule of GBB (or Mildronate) to the psBBOX-Zn^(II)-2OG–GBB complex strengthens binding of the first GBB molecule, i.e. there is cooperativity in substrate binding between the monomers of the dimer.

[5] = target: T2, psBBOX-Y201C-BFA (psBBOX*); test: 1H NMR binding assay with psBBOX-Y201C-BFA (psBBOX*); parameters: species or system Pseudomonas sp. AK1
Procedure: as §1, §2

psBBOX*-Zn(II) = target: T4, psBBOX*-Zn(II) (Pseudomonas sp., UniProt P80193, Y201C); test: Protein-observed 19F NMR (PrOF) ligand titrations with psBBOX*; format: binding, Pseudomonas sp. AK1; conditions: for effect on the original psBBOX* 19F NMR signal: titration with psBBOX*-Zn(II)
T4 construct: hexa-His tag (pCOLDI) (N); made in house; host or cells: E. coli BL21 (DE3)
Procedure: NMR materials and methods2 […]
broadening of 20 Hz was applied using MestReNova version 11.0. Spectra were referenced to […]
contained: 100 μM psBBOX* in Tris buffer (50 mM, pH 7.5) and 200 mM NaCl in 90% H2O and […]

hBBOX = conditions: cited from earlier work
psBBOX [6] = target: T3, psBBOX; conditions: reported GBB substrate analogues, hydroxylated to L-carnitine analogues; cited from earlier work
wt-psBBOX [7] = target: T1, wt-psBBOX; test: Fluoride release assay; format: biochemical, Pseudomonas sp. AK1; parameters: N-terminal hexa-His tag (pCOLD I vector); printed for the Y201C variant, inferred for wild type from the pCOLD template (N); made in house; host or cells: Escherichia coli
Procedure: The combined NMR studies on ligand binding led to the proposal that a new BBOX inhibitor scaffold could be identified by directly incorporating analogues of identified 2OG and GBB binding motifs, comprising appropriately positioned metal chelating and quaternary ammonium moieties, giving a ‘co-substrate/substrate’ mimic. With this in mind, RL190B (8) was synthesised (ESI ^†); it is a relatively potent psBBOX inhibitor (IC50 = 5 μM (fluoride release assay)[31]). […] By contrast with other ligand titrations using psBBOX* such significant line broadening was not observed (e.g. Fig. S11–S13, ESI ^†). Broadening of signals in PrOF NMR is often typical of weaker inhibitors; the significant (and unusual amongst studied compounds) signal attenuation observed with (8) may be a result of its binding in both 2OG and GBB cavities. This may cause changes of conformational mobility/protein destabilisation, potentially yielding a number of indistinct conformational states.
(B) RL190B is a 2OG and substrate mimic. (C) RL190B causes attenuation of the psBBOX* ^19F NMR signal. (D) RL190B inhibition of wt-psBBOX as determined by a fluoride release assay.[31] TEXT PRINTED IN THE PICTURE: (D) RL190B (8): IC50 (psBBOX) = 5 μM

BBOX = system: BBOX; parameters: method as in earlier work; conditions: 2OG-competing, metal-chelating BBOX inhibitor; cited from earlier work

T1 sequence (P80193 whole entry): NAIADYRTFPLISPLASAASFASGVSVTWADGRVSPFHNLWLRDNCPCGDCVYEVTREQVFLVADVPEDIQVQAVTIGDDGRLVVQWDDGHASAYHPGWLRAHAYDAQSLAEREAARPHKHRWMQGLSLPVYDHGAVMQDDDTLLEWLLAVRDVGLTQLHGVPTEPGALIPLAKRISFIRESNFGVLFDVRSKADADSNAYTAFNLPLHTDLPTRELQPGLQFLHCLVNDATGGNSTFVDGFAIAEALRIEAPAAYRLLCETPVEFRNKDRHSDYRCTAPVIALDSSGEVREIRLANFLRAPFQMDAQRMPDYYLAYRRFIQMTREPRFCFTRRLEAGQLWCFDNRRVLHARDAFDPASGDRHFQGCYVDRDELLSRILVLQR
T4 sequence (P80193 whole entry Y201C): as the sequence (P80193 whole entry) above, with Y201C counted along it
T2 sequence (P80193 whole entry Y201C): as the sequence (P80193 whole entry) above, with Y201C counted along it

Row | SMILES | Tm (wt-psBBOX [3]) | Tm Shift (wt-psBBOX [3]) [°C] | further results
1 | O=C(O)CCC(=O)C(=O)O [2OG, 2-oxoglutarate] |  |  | Km (wt-psBBOX [1]): 532 µM
2 | O=C(N[C@@H](CSCc1ccccn1)C(=O)O)c1ncccc1O [AR692B] |  |  | IC50 [2]: 245 µM
3 | [Co+2] [Co(II)] | 6.6±2.2 | 15.7±0.8 | 
4 | [Cu+2] [Cu(II)] | 6.3±0.5 | 12.4±1.1 | 
5 | [Fe+2] [Fe(II)] |  | 8.4±0.7 | 
6 | [K+] [K(I)] |  | 0.0±0.1 | 
7 | [Mg+2] [Mg(II)] | 20.1±0.2 | 0.0±0.1 | 
8 | C[N+](C)(C)NCCC(=O)[O-] [Mildronate, reference compound] |  |  | inhibition of psBBOX* catalysed GBB turnover ([2]; 1H NMR, 2.5 μM psBBOX*, 100 μM Fe(II), 200 μM GBB, 600 μM 2OG): unable to detect inhibition; GBB displacement (psBBOX [4]): ≤ 60%; GBB displacement (psBBOX [4]; listed as 4): ~60%; Kd [5]: 12.3 ± 1 µM; change of 19F NMR spectrum on addition to psBBOX*-Zn(II)-GBB-2OG (psBBOX*-Zn(II); psBBOX*-Zn(II)-GBB-2OG): does not change; also recorded: did not manifest detectable changes; IC50 (hBBOX): 34 to 60 µM
9 | [Mn+2] [Mn(II)] | 17.7±1.4 | 1.3±0.2 | 
10 | [Na+] [Na(I)] | 20.5±0.4 | 0.2±0.1 | 
11 | [Ni+2] [Ni(II)] | 12.3±0.2 | 18.1±0.1 | 
12 | C[P+](C)(C)CCCC(=O)[O-] [P-GBB] |  |  | substrate for psBBOX (psBBOX [6]): substrates
13 | C[N+](C)(C)CCCCN(O)C(=O)/C=C/C(=O)O [RL190B, (E)-4-(3-Carboxy-N-hydroxyacrylamido)-N,N,N-trimethylbutan-1-aminium] |  |  | IC50 (wt-psBBOX [7]): 5 µM; IC50 [2]: 15 µM; displacement of GBB and 2OG from the psBBOX active site (psBBOX [4]): displaces both GBB and 2OG; displacement of GBB and 2OG from the psBBOX active site (psBBOX [4]; listed as 8): displace both GBB and 2OG; effect on the original psBBOX* 19F NMR signal (psBBOX*-Zn(II)): attenuation; effect on the original psBBOX* 19F NMR signal (psBBOX*-Zn(II); listed as 8): significant broadening and almost complete attenuation
14 | [Zn+2] [Zn(II)] | 6.6±0.7 | 12.8±1.3 | 
15 | O=C(N[C@@H](Cc1c[nH]c2ccccc12)C(=O)O)c1nc(Cl)c2ccccc2c1O [compound 5] |  |  | IC50 (BBOX): 0.9 µM
